Laboratory results as given in the supplement of paper PMC10307832.

What was measured:
Experiment in all cases: relative viability (nuclei count vs DMSO), 5 days (fraction); higher = more cells survive
[1] = compound: COc1cc2nc(N3CCCN(C)CC3)nc(NC3CCN(Cc4ccccc4)CC3)c2cc1OC + CS(=O)(=O)N1CCN(Cc2cc3nc(-c4cccc5[nH]ncc45)nc(N4CCOCC4)c3s2)CC1 [Pictilisib] (partner 1 µM)
Summary of the method: (§1)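 After 5 days of treatment, lung cancer cells in 1536-well plates were fixed and stained in a single step (final 0.05% Triton X-100, 1% formaldehyde, 1 ug/ml Hoechst) and their nuclei counted on 4× images. Treatment had been applied by pin tool the day after seeding as one drug alone or as a fixed anchor-drug dose with five library-drug doses (not always all listed) in √10 steps. Relative viability is the nuclei count of treated wells divided by that of vehicle wells, and values are medians of duplicate plates.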

[2] = compound: COc1cc2nc(N3CCCN(C)CC3)nc(NC3CCN(Cc4ccccc4)CC3)c2cc1OC + Nc1ncn([C@H]2C[C@H](O)[C@@H](CO)O2)c(=O)n1 [Decitabine] (partner 2 µM)
Summary of the method: as §1

AZD6482 + Trametinib = compound: Cc1cc([C@@H](C)Nc2ccccc2C(=O)O)c2nc(N3CCOCC3)cc(=O)n2c1 [AZD6482] + CC(=O)Nc1cccc(-n2c(=O)n(C3CC3)c(=O)c3c(Nc4ccc(I)cc4F)n(C)c(=O)c(C)c32)c1 [Trametinib] (partner 0.02 µM)
Summary of the method: as §1

AZD6482 + AZD7762 = compound: Cc1cc([C@@H](C)Nc2ccccc2C(=O)O)c2nc(N3CCOCC3)cc(=O)n2c1 [AZD6482] + NC(=O)Nc1cc(-c2cccc(F)c2)sc1C(=O)N[C@H]1CCCNC1 [AZD7762] (partner 0.2 µM)
Summary of the method: as §1

Cell Line | relative viability ([1]; first compound 0.2 µM) | relative viability ([1]; first compound 0.6325 µM) | relative viability ([1]; first compound 2 µM) | relative viability ([1]; first compound 6.325 µM) | relative viability ([2]; first compound 0.2 µM) | relative viability ([2]; first compound 0.6325 µM) | relative viability ([2]; first compound 2 µM) | relative viability ([2]; first compound 6.325 µM) | relative viability (AZD6482 + Trametinib; first compound 0.08 µM) | relative viability (AZD6482 + Trametinib; first compound 0.253 µM) | relative viability (AZD6482 + Trametinib; first compound 0.8 µM) | relative viability (AZD6482 + Trametinib; first compound 2.53 µM) | relative viability (AZD6482 + Trametinib; first compound 8 µM) | relative viability (AZD6482 + AZD7762; first compound 0.08 µM) | relative viability (AZD6482 + AZD7762; first compound 0.253 µM) | relative viability (AZD6482 + AZD7762; first compound 0.8 µM) | relative viability (AZD6482 + AZD7762; first compound 2.53 µM) | relative viability (AZD6482 + AZD7762; first compound 8 µM)
NCI-H2087 | 0.752 | 0.996 | 0.872 | 0.834 | 0.318 | 0.261 | 0.219 | 0.212 | 0.176 | 0.162 | 0.133 | 0.132 | 0.183 | 1.35 | 1.35 | 1.46 | 0.887 | 1.09
NCI-H2126 | 0.505 | 0.557 | 0.456 | 0.47 | 0.577 | 0.55 | 0.561 | 0.567 | 0.538 | 0.531 | 0.448 | 0.39 | 0.351 | 1.02 | 0.849 | 1.02 | 0.795 | 0.762
NCI-H2170 | 0.353 | 0.371 | 0.288 | 0.284 | 0.487 | 0.454 | 0.49 | 0.46 | 0.878 | 0.879 | 0.844 | 0.836 | 0.733 | 0.806 | 0.788 | 0.785 | 0.615 | 0.566
NCI-H2347 | 0.702 | 0.686 | 0.574 | 0.549 | 0.586 | 0.617 | 0.615 | 0.606 | 0.276 | 0.271 | 0.222 | 0.265 | 0.238 | 0.502 | 0.464 | 0.332 | 0.32 | 0.373
NCI-H2405 | 0.453 | 0.383 | 0.584 | 0.328 | 0.706 | 0.745 | 0.784 | 0.729 | 0.459 | 0.559 | 0.531 | 0.365 | 0.395 | 0.563 | 0.658 | 0.697 | 0.388 | 0.374
NCI-H3122 | 0.589 | 0.634 | 0.601 | 0.478 | 0.398 | 0.451 | 0.461 | 0.363 | 0.211 | 0.23 | 0.184 | 0.181 | 0.161 | 0.956 | 0.987 | 1.05 | 0.696 | 0.777
PC-3 [JPC-3] | 0.721 | 0.763 | 0.6 | 0.805 | 0.863 | 0.805 | 0.718 | 0.674 | 0.556 | 0.694 | 0.65 | 0.564 | 0.55 | 0.872 | 0.715 | 0.741 | 0.367 | 0.413
PC-14 | 0.676 | 0.541 | 0.838 | 0.239 | 0.193 | 0.223 | 0.241 | 0.0753 | 0.704 | 0.747 | 0.794 | 0.455 | 0.622 | 0.417 | 0.302 | 0.324 | 0.26 | 0.194
RERF-LC-KJ | 0.458 | 0.559 | 0.585 | 0.579 | 0.743 | 0.699 | 0.733 | 0.679 | 0.767 | 0.764 | 0.74 | 0.682 | 0.584 | 0.867 | 0.893 |  | 0.812 | 0.838
